For one compound, IC50 results are on record in PMC5845541, “Novel Sodium Channel Inhibitor From Leeches” (Frontiers in Pharmacology, 2018).

For one assay, the target named is rNaV1.8 (rat NaV1.8) (Rattus norvegicus, UniProt Q62968). Put plainly: cell-based.
The target of a further assay is T1, mNaV1.9 (mouse NaV1.9) (Mus musculus, UniProt Q9R053).
T1 construct: Representative current traces of mNaV1.9, recorded from the NaV1.8-null mouse small DRG neurons; endogenous in cells; host or cells: small DRG neurons of NaV1.8-null mice
Put plainly: cell-based. To be noted: NaV1.8-null mouse small DRG neurons, 300 nM TTX; 100-ms step to –40 mV from holding potential –110 mV; variable slope fit; room temperature; mean ± SEM; read-out: IC50 for inhibition of mNaV1.9 currents.

Positions of bridges follow the written chain, without caps; N, C: chain ends. Residues, ends and D or L forms follow the SMILES beside them.

T1 sequence (Q9R053 whole entry): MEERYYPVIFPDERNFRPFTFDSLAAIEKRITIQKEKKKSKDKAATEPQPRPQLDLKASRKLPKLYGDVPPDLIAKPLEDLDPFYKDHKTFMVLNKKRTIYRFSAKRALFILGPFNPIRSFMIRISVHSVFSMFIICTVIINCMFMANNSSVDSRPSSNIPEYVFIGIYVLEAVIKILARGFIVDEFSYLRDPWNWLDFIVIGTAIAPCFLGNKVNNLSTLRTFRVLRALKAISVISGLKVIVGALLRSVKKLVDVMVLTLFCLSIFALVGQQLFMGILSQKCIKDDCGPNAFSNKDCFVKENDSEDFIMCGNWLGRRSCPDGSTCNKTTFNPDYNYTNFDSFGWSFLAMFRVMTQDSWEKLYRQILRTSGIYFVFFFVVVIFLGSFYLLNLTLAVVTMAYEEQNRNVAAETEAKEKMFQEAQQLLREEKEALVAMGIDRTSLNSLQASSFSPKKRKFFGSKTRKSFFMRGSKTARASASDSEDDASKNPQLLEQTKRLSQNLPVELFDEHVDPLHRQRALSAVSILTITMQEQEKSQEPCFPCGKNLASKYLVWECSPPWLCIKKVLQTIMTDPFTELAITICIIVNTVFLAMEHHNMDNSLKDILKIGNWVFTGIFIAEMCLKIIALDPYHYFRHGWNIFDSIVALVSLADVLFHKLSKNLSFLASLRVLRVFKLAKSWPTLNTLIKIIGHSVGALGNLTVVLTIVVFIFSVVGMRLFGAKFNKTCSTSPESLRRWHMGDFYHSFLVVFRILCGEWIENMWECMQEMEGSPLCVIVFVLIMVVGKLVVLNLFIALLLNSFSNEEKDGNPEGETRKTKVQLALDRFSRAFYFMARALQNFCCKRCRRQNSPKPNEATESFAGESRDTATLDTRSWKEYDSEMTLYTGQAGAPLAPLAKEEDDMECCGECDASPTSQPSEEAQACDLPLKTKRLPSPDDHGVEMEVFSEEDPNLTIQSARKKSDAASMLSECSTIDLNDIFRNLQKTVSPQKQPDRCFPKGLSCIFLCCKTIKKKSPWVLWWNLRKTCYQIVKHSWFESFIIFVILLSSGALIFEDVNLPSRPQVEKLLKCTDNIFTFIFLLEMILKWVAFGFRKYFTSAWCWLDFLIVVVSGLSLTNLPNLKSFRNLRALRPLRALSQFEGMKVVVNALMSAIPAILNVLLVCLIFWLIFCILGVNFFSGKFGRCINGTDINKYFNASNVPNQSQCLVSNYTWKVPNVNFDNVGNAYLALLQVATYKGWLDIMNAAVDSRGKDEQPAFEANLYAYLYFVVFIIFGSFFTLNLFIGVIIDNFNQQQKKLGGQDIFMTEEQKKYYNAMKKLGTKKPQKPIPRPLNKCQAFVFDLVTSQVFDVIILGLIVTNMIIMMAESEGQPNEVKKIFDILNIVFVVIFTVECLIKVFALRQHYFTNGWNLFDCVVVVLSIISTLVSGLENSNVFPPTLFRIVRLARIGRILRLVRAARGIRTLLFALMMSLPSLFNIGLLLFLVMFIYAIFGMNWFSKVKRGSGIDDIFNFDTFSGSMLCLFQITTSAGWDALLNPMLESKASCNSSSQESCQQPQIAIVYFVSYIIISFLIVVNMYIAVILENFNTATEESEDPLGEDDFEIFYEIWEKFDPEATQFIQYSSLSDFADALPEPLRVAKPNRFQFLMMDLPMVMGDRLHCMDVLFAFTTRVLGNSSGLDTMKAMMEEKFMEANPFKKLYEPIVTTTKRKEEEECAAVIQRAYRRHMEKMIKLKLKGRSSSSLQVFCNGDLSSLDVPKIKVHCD
Chain of rNaV1.8 (rat NaV1.8) (Q62968 whole entry): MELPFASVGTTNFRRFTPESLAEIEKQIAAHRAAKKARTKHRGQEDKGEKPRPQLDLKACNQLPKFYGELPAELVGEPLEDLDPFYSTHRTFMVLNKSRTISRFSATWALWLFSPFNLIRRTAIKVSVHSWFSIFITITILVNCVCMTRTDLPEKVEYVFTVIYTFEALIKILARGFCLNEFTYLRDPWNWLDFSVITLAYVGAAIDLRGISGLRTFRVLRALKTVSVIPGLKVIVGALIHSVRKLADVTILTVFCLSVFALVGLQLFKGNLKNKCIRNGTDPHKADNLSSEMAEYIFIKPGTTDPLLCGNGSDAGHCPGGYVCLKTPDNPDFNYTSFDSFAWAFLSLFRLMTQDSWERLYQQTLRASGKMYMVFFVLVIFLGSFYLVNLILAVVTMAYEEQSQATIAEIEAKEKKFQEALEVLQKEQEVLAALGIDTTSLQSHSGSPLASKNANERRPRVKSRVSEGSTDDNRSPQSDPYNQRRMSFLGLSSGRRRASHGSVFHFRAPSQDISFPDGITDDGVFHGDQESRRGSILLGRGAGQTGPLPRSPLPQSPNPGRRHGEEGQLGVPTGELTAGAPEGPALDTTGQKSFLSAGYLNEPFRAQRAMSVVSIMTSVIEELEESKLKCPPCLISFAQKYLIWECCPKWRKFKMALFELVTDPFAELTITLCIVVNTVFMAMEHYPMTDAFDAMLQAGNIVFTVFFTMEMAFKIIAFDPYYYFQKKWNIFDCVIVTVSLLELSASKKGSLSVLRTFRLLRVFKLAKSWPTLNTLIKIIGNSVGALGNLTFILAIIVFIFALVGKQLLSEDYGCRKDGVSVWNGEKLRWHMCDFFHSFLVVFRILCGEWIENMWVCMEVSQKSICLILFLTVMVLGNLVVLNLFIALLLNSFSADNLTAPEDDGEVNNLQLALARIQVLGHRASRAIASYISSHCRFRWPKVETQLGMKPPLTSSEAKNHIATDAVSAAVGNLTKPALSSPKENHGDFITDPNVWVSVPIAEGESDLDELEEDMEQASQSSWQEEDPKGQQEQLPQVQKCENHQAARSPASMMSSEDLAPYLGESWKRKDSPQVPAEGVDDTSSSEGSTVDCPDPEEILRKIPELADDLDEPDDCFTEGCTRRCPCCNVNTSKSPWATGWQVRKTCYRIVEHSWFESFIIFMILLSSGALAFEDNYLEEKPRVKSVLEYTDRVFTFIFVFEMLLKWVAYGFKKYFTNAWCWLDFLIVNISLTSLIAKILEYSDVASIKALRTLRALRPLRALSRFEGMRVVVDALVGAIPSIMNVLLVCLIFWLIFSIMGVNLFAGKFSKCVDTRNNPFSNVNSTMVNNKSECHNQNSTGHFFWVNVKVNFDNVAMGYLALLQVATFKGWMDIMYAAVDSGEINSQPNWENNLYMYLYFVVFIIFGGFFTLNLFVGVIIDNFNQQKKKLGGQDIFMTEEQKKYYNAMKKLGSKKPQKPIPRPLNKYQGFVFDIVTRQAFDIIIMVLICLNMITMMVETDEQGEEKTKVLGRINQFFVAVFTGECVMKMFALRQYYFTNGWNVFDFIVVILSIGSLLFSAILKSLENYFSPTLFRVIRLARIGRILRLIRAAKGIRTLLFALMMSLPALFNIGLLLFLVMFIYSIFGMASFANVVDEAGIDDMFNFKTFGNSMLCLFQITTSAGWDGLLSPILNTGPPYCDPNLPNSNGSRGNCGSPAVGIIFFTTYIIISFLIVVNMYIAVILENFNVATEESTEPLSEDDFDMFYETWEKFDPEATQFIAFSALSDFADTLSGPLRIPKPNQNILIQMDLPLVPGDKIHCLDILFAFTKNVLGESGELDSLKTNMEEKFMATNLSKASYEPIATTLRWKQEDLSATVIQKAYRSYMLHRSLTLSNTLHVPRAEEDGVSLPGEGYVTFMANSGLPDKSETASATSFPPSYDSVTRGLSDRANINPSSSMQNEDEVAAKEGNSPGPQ

For `CC[C@H](C)[C@H](NC(=O)[C@H](CCSC)NC(=O)[C@@H]1CCCN1C(=O)[C@@H](NC(=O)[C@@H]1CSSC[C@@H]2NC(=O)[C@H](CCC(=O)O)NC(=O)[C@H](Cc3c[nH]c4ccccc34)NC(=O)[C@H](Cc3ccc(O)cc3)NC(=O)[C@H](CCC(=O)O)NC(=O)[C@H](CCCCN)NC(=O)[C@@H](NC(=O)[C@H](C)N)CSSC[C@H](NC(=O)[C@H](Cc3ccccc3)NC(=O)[C@H](CC(C)C)NC(=O)[C@H](Cc3ccccc3)NC(=O)[C@H](C)NC(=O)CNC2=O)C(=O)N[C@@H]([C@@H](C)CC)C(=O)N[C@@H](CCC(=O)O)C(=O)NCC(=O)N[C@@H]([C@@H](C)CC)C(=O)N1)C(C)C)C(N)=O` [HSTX-I] (H-ACKEYWECGAFLFCIEGICVPMI-NH2; disulfide 2-14, 8-19), the results for the IC50 against rNaV1.8 (rat NaV1.8) and on mNaV1.9 (mouse NaV1.9) were ~2440 nM and ~3.3 µM, respectively.
